Experimental data from PMC6256002 (British Journal of Clinical Pharmacology, 2018).
Like-named read-outs stand apart in the source and are kept apart here. Marks after values point to notes of the source that are not given here. One block for each molecule: values may come before it.

Columns and labels:
[1] = for AUC0–24 h / Ae0–24 h (amount excreted in the urine over 24 h) / CLR (renal clearance) / t½,λz (apparent terminal half-life) / Cmax / AUC(0-t) / CL renal / half-life: arithmetic mean (CV%); for R (metabolite-to-parent ratio, AUC0–24 h): geometric mean (CV%); for Cmax: filgotinib 100 mg QD 10 days, capsule, fed, N = 10; for Time to steady state: predose (trough) concentrations, regardless of the age group; for AUC(0-t): AUC0–24 h; for CL renal: CLR (renal clearance); for half-life: t½,λz (apparent terminal half-life)
[2] = Effect of renal impairment; details: for AUC0–24 h / Ae0–24 h (amount excreted in the urine over 24 h) / CLR (renal clearance) / t½,λz (apparent terminal half-life) / R (metabolite-to-parent ratio, AUC0–24 h) / tmax / AUC(0-t) / CL renal / half-life: 100 mg QD; for AUC0–24 h / Ae0–24 h (amount excreted in the urine over 24 h) / CLR (renal clearance) / t½,λz (apparent terminal half-life) / Cmax / AUC(0-t) / CL renal / half-life: arithmetic mean (CV%); for R (metabolite-to-parent ratio, AUC0–24 h): geometric mean (CV%); for tmax: median (min–max); for Cmax: filgotinib 100 mg QD 10 days, tablet, fasted; for CLR lower (drop) compared with subjects with normal renal function: severe RI vs normal renal function; for AUC(0-t): AUC0–24 h; for CL renal: CLR (renal clearance); for half-life: t½,λz (apparent terminal half-life)
JAK1 = details: cited from earlier work
[3] = cited from earlier work; for Fraction excreted in the urine: in humans, filgotinib unchanged, metabolite as such
[4] = filgotinib 100 mg QD for 10 days
[5] = 100 mg QD, day 10, age 40–50 years
[6] = 100 mg QD, day 10, age 65–74 years
[7] = 100 mg QD, day 10, age 65–74 years, median (min–max)
[8] = 100 mg QD, day 10, age ≥75 years
[9] = 100 mg QD, day 10, age ≥75 years, median (min–max)
[10] = ≥75 years relative to 40–50 years, point estimate [90% CI]
[11] = both, human, in vivo, 100 mg, 100 mg QD, day 10, age 40–50 years
[12] = both, human, in vivo, 100 mg, 100 mg QD, day 10, age 65–74 years
[13] = both, human, in vivo, 100 mg, 100 mg QD, day 10, age ≥75 years
[14] = both, human, in vivo, 100 mg, day 10, mild RI
[15] = both, human, in vivo, 100 mg, day 10, moderate RI
[16] = both, human, in vivo, 100 mg, day 10, normal renal function
[17] = both, human, in vivo, 100 mg, day 10, severe RI

AUC0–24 h [1, 5]: 29.4 (27.3) μg.h ml^–1
Ae0–24 h (amount excreted in the urine over 24 h) [1, 5]: 34.3 (22.3) ^b % dose
CLR (renal clearance) [1, 5]: 1.25 (19.3) ^b l h^–1
t½,λz (apparent terminal half-life) [1, 5]: 17.8 (17.9) h
Ae0–24 h (amount excreted in the urine over 24 h) ([1]; 100 mg QD, day 10, age 40–50 years, listed as metabolite): 34.3 % dose
R (metabolite-to-parent ratio, AUC0–24 h) [1, 5]: 18.8 (25.1)
tmax ([1]; 100 mg QD, day 10, age 40–50 years, median (min–max)): 4.0 (2.0–5.0) h
AUC0–24 h [1, 6]: 34.2 (17.3) μg.h ml^–1
Ae0–24 h (amount excreted in the urine over 24 h) [1, 6]: 37.4 (13.2) ^c % dose
CLR (renal clearance) [1, 6]: 1.13 (20.9) ^c l h^–1
t½,λz (apparent terminal half-life) [1, 6]: 24.7 (23.3) h
R (metabolite-to-parent ratio, AUC0–24 h) [1, 6]: 19.4 (22.0)
tmax [1, 7]: 3.0 (3.0–5.0) h
AUC0–24 h [1, 8]: 40.9 (21.9) μg.h ml^–1
Ae0–24 h (amount excreted in the urine over 24 h) [1, 8]: 37.6 (15.4) ^b % dose
CLR (renal clearance) [1, 8]: 0.926 (29.5) ^b l h^–1
t½,λz (apparent terminal half-life) [1, 8]: 23.5 (21.2) h
Ae0–24 h (amount excreted in the urine over 24 h) ([1]; 100 mg QD, day 10, age ≥75 years, listed as metabolite): 37.6 % dose
R (metabolite-to-parent ratio, AUC0–24 h) [1, 8]: 18.4 (16.4)
tmax [1, 9]: 5.0 (3.0–5.0) h
Cmax ([1]; day 10, age 40–50 years): 1.69 (26.5) μg ml^–1
Cmax ([1]; day 10, age 65–74 years): 1.90 (15.5) μg ml^–1
Cmax ([1]; day 10, age ≥75 years): 2.20 (19.4) μg ml^–1
Apparent elimination half-life across age groups ([1]; mean over the three age groups): approximately 22 h
Time to steady state [1]: ≤ 4 dosing days
Fold-change in steady-state AUC0–24 h [1, 10]: 1.33 fold
Fold-change in steady-state Cmax [1, 10]: 1.25 fold
AUC0–24 h ([2]; day 10, mild RI): 30.1 (29.3) μg.h ml^–1
Ae0–24 h (amount excreted in the urine over 24 h) ([2]; day 10, mild RI): 35.7 (40.3) % dose
CLR (renal clearance) ([2]; day 10, mild RI): 1.21 (42.1) l h^–1
t½,λz (apparent terminal half-life) ([2]; day 10, mild RI): 25.4 (24.8) h
R (metabolite-to-parent ratio, AUC0–24 h) ([2]; day 10, mild RI): 15.9 (22.0)
tmax ([2]; day 10, mild RI): 3.3 (1.5–5) h
AUC0–24 h ([2]; day 10, moderate RI): 42.7 (38.4) μg.h ml^–1
Ae0–24 h (amount excreted in the urine over 24 h) ([2]; day 10, moderate RI): 29.9 (24.1) % dose
CLR (renal clearance) ([2]; day 10, moderate RI): 0.781 (47.8) l h^–1
t½,λz (apparent terminal half-life) ([2]; day 10, moderate RI): 31.7 (24.9) h
R (metabolite-to-parent ratio, AUC0–24 h) ([2]; day 10, moderate RI): 16.7 (35.8)
tmax ([2]; day 10, moderate RI): 2.3 (0.5–5) h
AUC0–24 h ([2]; day 10, normal renal function): 24.9 (31.7) μg.h ml^–1
Ae0–24 h (amount excreted in the urine over 24 h) ([2]; day 10, normal renal function): 37.4 (11.6) % dose
CLR (renal clearance) ([2]; day 10, normal renal function): 1.59 (24.5) l h^–1
t½,λz (apparent terminal half-life) ([2]; day 10, normal renal function): 20.8 (17.1) h
R (metabolite-to-parent ratio, AUC0–24 h) ([2]; day 10, normal renal function): 13.8 (21.5)
tmax ([2]; day 10, normal renal function): 3 (2–4) h
AUC0–24 h ([2]; day 10, severe RI): 66.6 (18.5) μg.h ml^–1
Ae0–24 h (amount excreted in the urine over 24 h) ([2]; day 10, severe RI): 32.1 (9.36) % dose
CLR (renal clearance) ([2]; day 10, severe RI): 0.488 (10.6) l h^–1
t½,λz (apparent terminal half-life) ([2]; day 10, severe RI): 43.6 (12.6) h
R (metabolite-to-parent ratio, AUC0–24 h) ([2]; day 10, severe RI): 26.0 (20.4)
tmax ([2]; day 10, severe RI): 3 (3–4) h
Cmax ([2]; day 10, mild RI, N = 6): 1.54 (31.3) μg ml^–1
Cmax ([2]; day 10, moderate RI, N = 6): 2.35 (35.4) μg ml^–1
Cmax ([2]; day 10, normal renal function, N = 9): 1.63 (31.9) μg ml^–1
Cmax ([2]; day 10, severe RI, N = 3): 3.43 (14.6) μg ml^–1
CLR drop compared with subjects with normal renal function ([2]; moderate RI vs normal renal function): 51%
Steady-state plasma concentrations reached ([2]; moderate and severe RI): 5 days
Steady-state plasma concentrations reached ([2]; normal renal function and mild RI): 3 days
CLR lower (drop) compared with subjects with normal renal function [2]: 69%
SMILES: Nc1nc2cccc(-c3ccc(CN4CCS(=O)(=O)CC4)cc3)n2n1 [Metabolite]
Reduced potency versus filgotinib (JAK1; human whole-blood assay): 19 fold
Fraction excreted in the urine ([3]; no reference given): ≥ 50%

Ae0–24 h (amount excreted in the urine over 24 h) [1, 5]: 8.01 (26.5) ^b % dose
Ae0–24 h (amount excreted in the urine over 24 h) ([1]; 100 mg QD, day 10, age 40–50 years, listed as filgotinib): 8.01 % dose
Ae0–24 h (amount excreted in the urine over 24 h) [1, 6]: 6.55 (14.3) ^c % dose
Ae0–24 h (amount excreted in the urine over 24 h) ([1]; 100 mg QD, day 10, age 65–74 years, listed as filgotinib): 6.55 % dose
tmax [1, 7]: 2.0 (0.5–3.0) h
Ae0–24 h (amount excreted in the urine over 24 h) [1, 8]: 7.24 (16.9) ^b % dose
Ae0–24 h (amount excreted in the urine over 24 h) ([1]; 100 mg QD, day 10, age ≥75 years, listed as filgotinib): 7.24 % dose
tmax [1, 9]: 2.0 (0.5–3.0) h
tmax ([1]; both, human, in vivo, 100 mg): 2 h
AUC(0-t) [1, 11]: 1600 ng·h/mL
AUC(0-t) [1, 12]: 1790 ng·h/mL
AUC(0-t) [1, 13]: 2220 ng·h/mL
CL renal [1, 11]: 92.5 mL/min
CL renal [1, 12]: 65 mL/min
CL renal [1, 13]: 55.5 mL/min
half-life [1, 11]: 6.07 h
half-life [1, 12]: 5.83 h
half-life [1, 13]: 6.9 h
Time to steady state [1]: steady state by the second dosing day
Fold-change in steady-state AUC0–24 h [1, 10]: 1.40 fold
Ae0–24 h (amount excreted in the urine over 24 h) ([2]; day 10, mild RI): 5.37 (42.1) % dose
Ae0–24 h (amount excreted in the urine over 24 h) ([2]; day 10, moderate RI): 4.34 (51.2) % dose
Ae0–24 h (amount excreted in the urine over 24 h) ([2]; day 10, normal renal function): 7.61 (35.4) % dose
Ae0–24 h (amount excreted in the urine over 24 h) ([2]; day 10, severe RI): 2.08 (34) % dose
Steady state in plasma reached by ([2]; all renal function groups): ≤ 2 days
AUC(0-t) [2, 14]: 1890 ng·h/mL
AUC(0-t) [2, 15]: 2690 ng·h/mL
AUC(0-t) [2, 16]: 1820 ng·h/mL
AUC(0-t) [2, 17]: 2640 ng·h/mL
CL renal [2, 14]: 49.2 mL/min
CL renal [2, 15]: 31.5 mL/min
CL renal [2, 16]: 74.2 mL/min
CL renal [2, 17]: 15 mL/min
tmax ([2]; both, human, in vivo, 100 mg, tmax, day 10, moderate RI): 0.6 h
tmax ([2]; both, human, in vivo, 100 mg, tmax, day 10, normal renal function): 0.8 h
half-life [2, 15]: 10.6 h
half-life [2, 16]: 5.42 h
half-life [2, 17]: 9.03 h
Time after dosing at which Cmax was reached ([2]; day 10): 1 h
CLR lower (drop) compared with subjects with normal renal function [2]: 80%
SMILES: O=C(Nc1nc2cccc(-c3ccc(CN4CCS(=O)(=O)CC4)cc3)n2n1)C1CC1 [Filgotinib]
Safety and tolerability [4]: generally safe and well tolerated
Selectivity for JAK1 over JAK2 (JAK1; in human whole blood): 30 times
Impact of food on bioavailability [3]: no impact
Fraction excreted in the urine ([3]; no reference given): < 10%
Eliminated in urine (filgotinib and its metabolites) ([3]; no reference given): > 80%
